# Assay results taken from patent publication US20240182444A1, “ANTI-VIRAL COMPOUNDS” (Aligos Therapeutics, Inc., priority 2022, published 2024).
# Read-outs that look alike come from different tables or passages of the source.
# What was measured:
# [1] = test system: SARS-CoV-2 B.1.1.7 lineage; test: microbe, parasite or virus in culture; assay type: cell-based; settings: Severe acute respiratory syndrome coronavirus 2, 96 h; read-out: A549-dual_ACE2_TMPRSS2 (EC50)
# SARS-Cov-2 3CLpro = target: T1, SARS-Cov-2 3CLpro (Severe acute respiratory syndrome coronavirus 2, UniProt P0DTD1); test: SARS-Cov-2 3CLpro protease assay (SAMDI-MS); assay type: biochemical
# T1 construct: 3CLpro was added using a Multidrop Combi
# in vitro = settings: human
# [2] = test system: human beta-coronavirus OC43; test: OC43 coronavirus antiviral assay in HeLa cells; assay type: cell-based; settings: Betacoronavirus 1, 144 h, OC43, 6 days at 33° C., cell-titer-glo
# Procedure: (§1) The human beta-coronavirus OC43 was purchased from ATCC (Manassas, VA) and propagated using HCT-8 human colorectal epithelial cells (ATCC). HeLa human cervical epithelial cells (ATCC) were used as susceptible host cell lines and were cultured using EMEM media, supplemented with 10% fetal bovine serum (FBS), 1% (v/v) penicillin/streptomycin (P/S), 1% (v/v) HEPES and 1% (v/v) cellgro Glutagro™ supplement (all Corning, Manassas, VA) at 37° C. For the OC43 antiviral assay, 1.5×10^4 HeLa cells per well were plated in 100 μL complete media in white 96-well plates with clear bottoms at 37° C. for up to 24 h to facilitate attachment and allow cells to recover from seeding stresses. Next day, the cell culture medium was removed. Serially diluted compounds in 100 μL assay media (EMEM, 2% FBS, 1% P/S, 1% cellgro Glutagro™ supplement, 1% HEPES) were added to the cells and incubated for 4 h at 37° C. in a humidified 5% CO2 incubator. 100 μL of OC43 virus stock was diluted to a concentration known to produce optimal cytopathic effect, inducing 80-90% reduction in cell viability. 96-well plates were incubated for 6 days at 33° C.; each plate contains uninfected control wells as well as virus-infected wells that were not treated with compound. Cytotoxicity plates without the addition of OC43 virus were carried out in parallel. At the end of the incubation period, 100 μL cell culture supernatant was replaced with 100 μL cell-titer-glo reagent (Promega, Madison, WI) and incubated for at least 10 min at rt prior to measuring luminescence. Luminescence was measured on a Perkin Elmer (Waltham, MA) Envision plate reader. Antiviral % inhibition was calculated as follows: [(Compound treated cells infected sample)−(no compound infected control)]/[(Uninfected control)−(no compound infected control)]*100; Using GraphPad (San Diego, CA) prism software version 8.3.1, the antiviral dose-response plot was generated as a sigmoidal fit, log(inhibitor) vs response-variable slope (four parameters) model and the EC50 was calculated which is the predicted compound concentration corresponding to a 50% inhibition of the viral cytopathic effect.
# (§2) Table 2 indicates related EC50 and CC50 values for the tested compounds ‘A’ indicates an EC50<100 nM, ‘B’ indicates an EC50 of ≥100 nM and <1000 nM, ‘C’ indicates an EC50≥1000 nM and <10000 nM and ‘D’ indicates an EC50≥10000 nM and <100000 nM. For CC50, the values are reported in micromolar (M), ‘A’ indicates a CC50≥10000 nM and ‘B’ indicates a CC50≥1 μM and <10 μM.
# human cathepsin L = target: T2, human cathepsin L (Homo sapiens, UniProt P07711); test: Cathepsin L assay; assay type: biochemical; settings: 10 pM human cathepsin L, Z-FR-AMC 2 μM
# T2 construct: purchased R&D Systems
# Procedure: For the cathepsin L assay, 10 pM of human cathepsin L (R&D Systems; Minneapolis, MN) was preincubated for 30 mins with test compounds. Reactions were initiated by the addition of a peptide substrate Z-FR-AMC (final concentration 2 μM, Anaspec; Fremont, CA). Fluorescence was measured at 2-minute intervals for 30 mins using a 355/460 excitation/emission filter module on an Envision plate reader (Perkin Elmer; Waltham, MA). The IC50 values were calculated for each assay by fitting the curves using a four-parameter equation in GraphPad Prism.
# Table 4 indicates related IC50 values for the tested compounds where ‘A’ indicates an IC50≥10000 nM, ‘B’ indicates an IC50 of ≥1000 nM and <10000 nM, ‘C’ indicates an IC50; ≥100 nM and <1000 nM, ‘D’ indicates an IC50<100 nM.
# [3] = Cytotoxicity in HeLa cells without OC43 virus; assay type: cell-based; settings: human, HeLa cells (uninfected), in parallel
# Procedure: as §1, §2
# 3Clpro = 3Clpro (Severe acute respiratory syndrome coronavirus 2, UniProt P0DTD1); settings: cited from earlier work
# SARS-CoV-2 [4] = settings: VeroE6, A549-ACE2 and/or HeLa-ACE2; cited from earlier work
# SARS-CoV-2 [5] = settings: A549-ACE2 expressing TMPRSS2; cited from earlier work
# [6] = 30 mins preincubation, duplex peptide substrates, read-out: SARS-Cov-2 (3CLpro IC50)
# T2 sequence (P07711 114-333): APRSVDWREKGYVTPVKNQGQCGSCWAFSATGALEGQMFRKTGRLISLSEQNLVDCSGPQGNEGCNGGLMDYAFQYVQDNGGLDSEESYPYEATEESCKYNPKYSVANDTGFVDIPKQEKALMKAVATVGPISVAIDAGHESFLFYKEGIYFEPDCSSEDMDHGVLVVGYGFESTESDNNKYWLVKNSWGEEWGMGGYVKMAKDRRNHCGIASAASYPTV
SMILES,EC50 [1] [nM],IC50 (SARS-Cov-2 3CLpro; [6]) [nM],CC50 (in vitro) [nM],EC50 [2] [nM],IC50 (human cathepsin L) [nM],CC50 at 6 days [3] [nM],"IC50 (SARS-Cov-2 3CLpro; bound given in table footnote, read-out: SARS-Cov-2 activity (footnote of Table 1)) [nM]",inhibitory effect on the 3Clpro (3Clpro),inhibition of SARS-CoV-2 (SARS-CoV-2 [4]),antiviral effect when TMPRSS2 was expressed (SARS-CoV-2 [5])
"CC(C)(C)[C@H](NC(=O)C(F)(F)F)C(=O)N1C[C@H]2[C@@H]([C@H]1C(=O)NC(C#N)c1cncc3ccccc13)[C@H]1C=C[C@@H]2C1 (stereo partly drawn) [Compound 1, (1S,3aR,4S,7R,7aS)—N-(cyano(isoquinolin-4-yl)methyl)-2-((S)-3,3-dimethyl-2-(2,2,2-trifluoroacetamido)butanoyl)-2,3,3a,4,7,7a-hexahydro-1H-4,7-methanoisoindole-1-carboxamide]",< 100,< 20,> 1000,< 100,≥ 10000,≥ 10000,,,,
"CC(C)(C)[C@H](NC(=O)C(F)(F)F)C(=O)N1C[C@H]2[C@@H]([C@H]1C(=O)NC(C#N)c1cnc3ccccn13)[C@H]1C=C[C@@H]2C1 (stereo partly drawn) [Compound 2, (1S,3aR,4S,7R,7aS)—N-(cyano(imidazo[1,2-a]pyridin-3-yl)methyl)-2-((S)-3,3-dimethyl-2-(2,2,2-trifluoroacetamido)butanoyl)-2,3,3a,4,7,7a-hexahydro-1H-4,7-methanoisoindole-1-carboxamide]",100 to 1000,< 20,> 1000,100 to 1000,≥ 10000,≥ 10000,,,,
"CC(C)(C)[C@H](NC(=O)C(F)(F)F)C(=O)N1C[C@H]2[C@@H]([C@H]1C(=O)NC(C#N)c1cccnc1)[C@H]1C=C[C@@H]2C1 (stereo partly drawn) [Compound 3, (1R,2S,3S,6R,7S)—N-[cyano(pyridin-3-yl)methyl]-4-[(2S)-3,3-dimethyl-2-(2,2,2-trifluoroacetamido)butanoyl]-4-azatricyclo[5.2.1.0^{2,6}]dec-8-ene-3-carboxamide]",100 to 1000,< 20,> 1000,100 to 1000,≥ 10000,≥ 10000,,,,
CC(C)(C)[C@H](NC(=O)C(F)(F)F)C(=O)N1CCC2(CC2)C[C@H]1C(=O)NC(C#N)c1cnn2ccccc12 (stereo partly shown) [Compound 18],100 to 1000,< 20,> 1000,100 to 1000,,≥ 10000,,,,
COc1cccn2ncc(C(C#N)NC(=O)[C@@H]3[C@@H]4[C@H](CN3C(=O)[C@@H](NC(=O)C(F)(F)F)C(C)(C)C)[C@H]3C[C@@H]4[C@H](F)C3)c12 (stereo partly shown) [Compound 19],< 100,< 20,> 1000,100 to 1000,,≥ 10000,,,,
CC(C)(C)[C@H](NC(=O)C(F)(F)F)C(=O)N1C[C@@H]2[C@H]3C[C@@H]([C@@H]2[C@H]1C(=O)NC(C#N)c1cnn2cc(F)ccc12)[C@H](F)C3 (stereo partly shown) [Compound 20],< 100,< 20,> 1000,100 to 1000,,≥ 10000,,,,
CC(C)(C)[C@H](NC(=O)C(F)(F)F)C(=O)N1C[C@@H]2[C@H]3C[C@@H]([C@@H]2[C@H]1C(=O)NC(C#N)c1cncc2cnccc12)[C@H](F)C3 (stereo partly shown) [Compound 22],100 to 1000,< 20,> 1000,1000 to 10000,,≥ 10000,,,,
N#CC(NC(=O)[C@@H]1[C@@H]2[C@H](CN1C(=O)[C@H](CC1CC1)NC(=O)C(F)(F)F)[C@H]1C[C@@H]2[C@H](F)C1)c1cnn2ccccc12 (stereo partly shown) [Compound 24],100 to 1000,< 20,> 1000,100 to 1000,,≥ 10000,,,,
CC(C)(C)[C@H](NC(=O)C(F)(F)F)C(=O)N1C[C@@H]2[C@H]3C[C@@H]([C@@H]2[C@H]1C(=O)NC(C#N)c1cnn2ccccc12)[C@H](F)C3 (stereo partly shown) [Compound 25],100 to 1000,< 20,> 1000,100 to 1000,,≥ 10000,,,,
COc1cccc2cncc(C(C#N)NC(=O)[C@@H]3[C@@H]4[C@H](CN3C(=O)[C@@H](NC(=O)C(F)(F)F)C(C)(C)C)[C@H]3C[C@@H]4[C@H](F)C3)c12 (stereo partly shown) [Compound 26],< 100,< 20,> 1000,< 100,,≥ 10000,,,,
CC(C)(C)[C@H](NC(=O)C(F)(F)F)C(=O)N1C[C@@H]2[C@H]3C[C@@H]([C@@H]2[C@H]1C(=O)NC(C#N)c1cncc2c1OCCO2)[C@H](F)C3 (stereo partly shown) [Compound 27],≥ 1000,20 to 200,> 1000,1000 to 10000,,≥ 10000,,,,
COc1cccc2cncc([C@@H](C#N)NC(=O)[C@@H]3[C@@H]4[C@H](CN3C(=O)[C@@H](NC(=O)C(F)(F)F)C(C)(C)C)[C@H]3C[C@@H]4[C@H](F)C3)c12 [Compound 28],< 100,< 20,> 1000,< 100,,≥ 10000,,,,
COc1cccc2cncc([C@H](C#N)NC(=O)[C@@H]3[C@@H]4[C@H](CN3C(=O)[C@@H](NC(=O)C(F)(F)F)C(C)(C)C)[C@H]3C[C@@H]4[C@H](F)C3)c12 [Compound 29],< 100,20 to 200,> 1000,100 to 1000,,≥ 10000,,,,
COc1cccc2cncc(C(C#N)NC(=O)[C@@H]3[C@@H](c4ccccc4)CCN3C(=O)[C@@H](NC(=O)C(F)(F)F)C(C)(C)C)c12 (stereo partly shown) [Compound 30],≥ 1000,20 to 200,> 1000,1000 to 10000,,≥ 10000,,,,
CC(C)(C)[C@H](NC(=O)C(F)(F)F)C(=O)N1C[C@@H]2[C@H]3C[C@@H]([C@@H]2[C@H]1C(=O)NC1(C#N)CCCc2ccncc21)[C@H](F)C3 (stereo partly shown) [Compound 31],≥ 1000,2000 to 20000,> 1000,1000 to 10000,,≥ 10000,> 2000,,,
CN1CCN(C(=O)N[C@@H](Cc2ccccc2)C(=O)N[C@H](/C=C/S(=O)(=O)c2ccccc2)CCc2ccccc2)CC1 [Compound K117777],,,,,,,,lacks an inhibitory effect,potent inhibition,abolished
